Data reported in ChEMBL document CHEMBL1155121, “4-Hydroxy-5-pyrrolinone-3-carboxamide HIV-1 integrase inhibitors” (Bioorg Med Chem Lett, 2008).
Calls of active or inactive are those of the source. The calls are words filed in the database; no cut-off is given here.

Legend:
[1] = biological target: Human immunodeficiency virus type 1 integrase (Human immunodeficiency virus 1, UniProt Q7ZJM1); test: Inhibition of recombinant HIV1 integrase strand transfer activity
[2] = tested on: Human immunodeficiency virus 1; test: Antiviral activity against HIV1 in human MT4 cells at 25 uM; format: functional
[3] = tested on: MT4; test: Cytotoxicity against human MT4 cells up to 20 uM; format: cell-based
[4] = tested on: Plasma; test: Fraction unbound in human plasma; format: ADME, cell-free

Human immunodeficiency virus type 1 integrase, sequence (Q7ZJM1 whole entry): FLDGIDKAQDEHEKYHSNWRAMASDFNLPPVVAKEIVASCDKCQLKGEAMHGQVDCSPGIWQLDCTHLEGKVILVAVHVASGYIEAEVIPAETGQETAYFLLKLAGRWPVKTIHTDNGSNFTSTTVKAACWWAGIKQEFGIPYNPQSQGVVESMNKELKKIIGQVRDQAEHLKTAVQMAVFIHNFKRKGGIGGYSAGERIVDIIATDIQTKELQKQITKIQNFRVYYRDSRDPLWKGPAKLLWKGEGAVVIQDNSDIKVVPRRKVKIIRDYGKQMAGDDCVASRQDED

Compound | IC50 [1] [nM] | Activity [2] | Activity [3] | Fu [4] [%]
O=C(NCc1ccc(F)cc1)C1=C(O)C(=O)N(Cc2ccccc2)C1 | 100 | inactive | Not Active | –
O=C(NCc1ccc(F)cc1)C1=C(O)C(=O)N(Cc2ccccn2)C1 | 94 | inactive | Not Active | < 1
O=C(NCc1ccc(F)cc1)C1=C(O)C(=O)N2CCCCC12 (stereo not drawn) | 18 | 35% | Not Active | –
Cc1cccc(CN2CC(C(=O)NCc3ccc(F)cc3)=C(O)C2=O)c1 | 6 | inactive | Not Active | –
CN1C(=O)C(O)=C(C(=O)NCc2ccc(F)cc2)C1c1ccccc1 (stereo not drawn) | > 1000 | inactive | Not Active | –
O=C(NCc1ccc(F)cc1)C1=C(O)C(=O)N(CCCc2ccccc2)C1 | 5 | inactive | Not Active | –
O=C(NCc1ccc(F)cc1)C1=C(O)C(=O)N(CCN2CCCCC2)C1 | > 1000 | inactive | Not Active | –
COc1ccccc1CCN1CC(C(=O)NCc2ccc(F)cc2)=C(O)C1=O | 4 | inactive | Not Active | –
O=C(NCc1ccc(F)cc1)C1=C(O)C(=O)N(CCN2CCOCC2)C1C(=O)NCc1ccc(F)cc1 (stereo not drawn) | > 1000 | inactive | Not Active | –
